The values below come from BindingDB's records for doi:10.1016/0024-3205(96)00449-3 (Eli Lilly, 1996).

Molecules are shown by their SMILES.

The target in experiment [1] is 5-hydroxytryptamine receptor 2A (Homo sapiens, UniProt P28223).
The target in experiment [2] is 5-hydroxytryptamine receptor 2B (Homo sapiens, UniProt P41595).
Experiment [3] addresses T1, 5-hydroxytryptamine receptor 2C (Homo sapiens, UniProt P28335).
T1 sequence (P28335 whole entry): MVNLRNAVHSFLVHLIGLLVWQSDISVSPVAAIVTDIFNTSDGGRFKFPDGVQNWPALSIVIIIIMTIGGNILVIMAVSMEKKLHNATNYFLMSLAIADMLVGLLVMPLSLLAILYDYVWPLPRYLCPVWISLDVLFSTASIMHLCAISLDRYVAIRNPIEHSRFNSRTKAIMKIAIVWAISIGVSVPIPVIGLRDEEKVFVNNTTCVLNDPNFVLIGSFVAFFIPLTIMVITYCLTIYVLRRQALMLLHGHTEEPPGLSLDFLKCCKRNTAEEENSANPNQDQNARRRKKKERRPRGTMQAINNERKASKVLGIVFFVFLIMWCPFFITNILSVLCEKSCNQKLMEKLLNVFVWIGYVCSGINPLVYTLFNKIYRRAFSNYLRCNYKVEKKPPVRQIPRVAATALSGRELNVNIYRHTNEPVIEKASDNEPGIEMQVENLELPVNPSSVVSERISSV

Sequence of 5-hydroxytryptamine receptor 2A (P28223 whole entry): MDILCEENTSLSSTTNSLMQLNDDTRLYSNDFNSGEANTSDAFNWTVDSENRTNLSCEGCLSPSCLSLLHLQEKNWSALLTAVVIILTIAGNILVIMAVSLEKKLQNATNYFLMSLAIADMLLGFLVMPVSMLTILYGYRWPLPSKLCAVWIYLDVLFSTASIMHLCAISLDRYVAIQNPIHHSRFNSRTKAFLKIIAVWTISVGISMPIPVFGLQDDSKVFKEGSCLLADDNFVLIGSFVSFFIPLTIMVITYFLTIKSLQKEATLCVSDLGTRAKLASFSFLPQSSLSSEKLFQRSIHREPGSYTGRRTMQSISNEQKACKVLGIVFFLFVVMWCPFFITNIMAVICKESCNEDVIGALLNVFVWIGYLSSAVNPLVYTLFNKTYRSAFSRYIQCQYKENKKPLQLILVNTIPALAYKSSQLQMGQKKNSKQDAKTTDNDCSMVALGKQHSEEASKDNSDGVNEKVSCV
Sequence of 5-hydroxytryptamine receptor 2B (P41595 whole entry): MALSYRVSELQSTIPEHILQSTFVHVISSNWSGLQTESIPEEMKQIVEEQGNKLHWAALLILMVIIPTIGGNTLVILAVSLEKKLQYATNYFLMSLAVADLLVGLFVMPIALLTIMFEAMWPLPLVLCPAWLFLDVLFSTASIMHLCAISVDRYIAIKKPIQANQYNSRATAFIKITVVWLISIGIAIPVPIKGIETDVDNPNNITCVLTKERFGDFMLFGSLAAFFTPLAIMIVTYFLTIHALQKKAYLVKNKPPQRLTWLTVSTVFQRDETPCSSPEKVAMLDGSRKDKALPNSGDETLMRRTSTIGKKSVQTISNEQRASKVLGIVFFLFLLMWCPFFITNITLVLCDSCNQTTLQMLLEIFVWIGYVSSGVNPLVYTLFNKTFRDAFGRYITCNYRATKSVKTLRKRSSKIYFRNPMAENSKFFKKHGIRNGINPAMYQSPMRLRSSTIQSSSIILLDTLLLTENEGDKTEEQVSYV

What is called Ki is the equilibrium dissociation constant of an inhibitor or competing ligand from its target. High values mean lower affinity, low ones higher affinity. With `NC(N)=NN=C(c1ccccc1)C1CCC(Cl)S1` (stereo not drawn) [LY 063518], the Ki in experiment [1] was determined as 137 nM; in experiment [2] it was 472 nM; in experiment [3] it was 1660 nM.
In the same order, the values of `CCCc1c(COc2ccc(C=NN=C(N)N)cc2)ccc(C(C)=O)c1O` [LY 314228] are 65 nM, 1210 nM and 168 nM.
For the molecule `CCCc1c(COc2ccc(C=NN=C(N)N)c(OC)c2)ccc(C(=O)CC)c1O` [LY 320950], the inhibition constant Ki in experiment [1] amounted to 248 nM; in experiment [2] it was 465 nM; in experiment [3], 188 nM.
The like results for `CCCc1cc(C(C)(C)C)ccc1Oc1cccc(C=NN=C(N)N)c1` [LY 320951] were, in that order, 839 nM, 2930 nM and 1190 nM.
In the same order, the values of `CCCc1c(COc2ccc(C=NN=C(N)N)cc2)ccc(C(=O)CC)c1O` [LY 320954] are 96 nM, 1640 nM and 257 nM.
The like results for `Cc1ccc(C)c(COc2ccc(C=NN=C(N)N)cc2)c1` [LY 334359] were, in that order, 569 nM, 388 nM and 401 nM.
On to `NC(N)=NN=Cc1cccc(OCc2ccc(C(=O)c3ccccc3)cc2)c1` [LY 334362], for which the values for the Ki in experiment [1], in experiment [2] and in experiment [3] were 179 nM, 477 nM and 91 nM, respectively.
For the molecule `CCc1c(COc2ccc(C=O)cc2)ccc(C(C)=O)c1O` [LY 335102], the results for the inhibition constant (Ki) in experiment [2] and in experiment [3] were 7910 nM and 9730 nM, respectively.
